Data set [1] is described as follows: Determination of water solubility of corrosion inhibitors in 20% hydrochloric acid solution. Format: physicochemical. The following applies: 0.1 g corrosion inhibitor in 200 mL of 20% hydrochloric acid solution. As for the experimental part:
(§1) The process is as follows: weigh […] of the corrosion inhibitor of the present invention, and dissolve in 200 mL of 20% hydrochloric acid solution, respectively, stir and observe its dissolution. Prepare 20% hydrochloric acid solution system adding with iron ion stabilizer citric acid, clay stabilizer potassium chloride and discharge aiding agent OP-10 or fluorocarbon surfactant, respectively, and then weigh 0.1 g of the corrosion inhibitor of the present invention and add them to the 20% hydrochloric acid solution system, to observe the compatibility.

Data set [2] can be described thus: 4 h corrosion test at 90° C. in 20% hydrochloric acid. The following applies: P110 carbon steel, 1000 ppm inhibitor. The method, then:
The corrosion inhibition performance of corrosion inhibitors in the embodiments 1 to 4 is determined by a 4 h corrosion test at 90° C. using 20% hydrochloric acid as a corrosive medium and P110 carbon steels. The amount of corrosion inhibitors is 1000 ppm.

Data set [3] can be described thus: Compatibility with 20% hydrochloric acid system containing iron ion stabilizer, clay stabilizer and discharge aiding agent. Format: physicochemical. Conditions: 0.1 g in 20% hydrochloric acid system with citric acid, potassium chloride and OP-10 or fluorocarbon surfactant; 90° C. As for the experimental part:
as §1, with “The water solubility of the corrosion inhibitor prepared by Embodiments 1 to 4 and its compatibility with the system containing the iron ion stabilizer, clay stabilizer and discharge aiding agent under 90° C. are determined. The” for “The”

As to `OC(C[N+]1(Cc2ccc3ccccc3c2)CCOCC1)C[N+](Cc1ccccc1)(Cc1ccccc1)Cc1ccc2ccccc2c1` (stereo not drawn) [Embodiment 1], the “Water solubility and appearance” value in data set [1] is listed as “Soluble colorless”. In data set [2], this compound returned a Corrosion rate of 34.87 gm^−2h^−1 and an Inhibition rate of 95.18%. The Compatibility entry in data set [3] is “Uniform and transparent,”.

With `OC(C[N+](Cc1ccccc1)(Cc1ccccc1)Cc1ccccc1)C[N+]1(Cc2ccccc2)C=Cc2ccccc21` (stereo not drawn) [Embodiment 2], the “Water solubility and appearance” value in data set [1] was “Soluble colorless”. Moreover, in data set [2], the Corrosion rate is reported as 45.79 gm^−2h^−1 and the Inhibition rate is listed as 93.68%. For the same compound, the Compatibility entry in data set [3] was “Uniform and transparent,”.

With `CCCCCC[N+](Cc1ccccc1)(Cc1ccccc1)CC(O)C[N+](CCCCCC)(Cc1ccccc1)CC(O)C[N+](CCCCCC)(Cc1ccccc1)Cc1ccccc1` (stereo not drawn) [Embodiment 3], the “Water solubility and appearance” value in data set [1] is reported as “Soluble colorless”. In data set [2], this compound registered a Corrosion rate of 29.86 gm^−2h^−1 and an Inhibition rate of 95.88%. Moreover, the Compatibility entry in data set [3] was “Uniform and transparent,”.

The record behind these values is US10889748B2, “Process for preparing dibenzylamine quaternary ammonium salt high-temperature resistant corrosion inhibitor and applications thereof” (Southwest Petroleum University, priority 2018, dated 2021).
